Patent US6504052B1, “Excitatory amino acid receptor modulators” (Eli Lilly and Company, priority 1999, dated 2003)

Target: T1, mGluR2 (Homo sapiens, UniProt Q14416)
T1 construct: expressed in transfected cells
Assay: [3H]LY341495 binding displacement at mGluR2
Conditions: radioligand [3H]LY341495, cells expressing human mGluR subtypes, read-out: Ki for reversal of [3 H] LY341495 binding
Excerpt: (D. D. Schoepp, et al., Neuropharmacol., 1996, 35, 1661-1672 and 1997, 36, 111).
(LY341495 is described in Ornstein et al., J. Med. Chem., 1998, 41, 346-357 and J. Med. Chem., 1998, 41, 358 to 378).

T1 sequence (Q14416 19-872): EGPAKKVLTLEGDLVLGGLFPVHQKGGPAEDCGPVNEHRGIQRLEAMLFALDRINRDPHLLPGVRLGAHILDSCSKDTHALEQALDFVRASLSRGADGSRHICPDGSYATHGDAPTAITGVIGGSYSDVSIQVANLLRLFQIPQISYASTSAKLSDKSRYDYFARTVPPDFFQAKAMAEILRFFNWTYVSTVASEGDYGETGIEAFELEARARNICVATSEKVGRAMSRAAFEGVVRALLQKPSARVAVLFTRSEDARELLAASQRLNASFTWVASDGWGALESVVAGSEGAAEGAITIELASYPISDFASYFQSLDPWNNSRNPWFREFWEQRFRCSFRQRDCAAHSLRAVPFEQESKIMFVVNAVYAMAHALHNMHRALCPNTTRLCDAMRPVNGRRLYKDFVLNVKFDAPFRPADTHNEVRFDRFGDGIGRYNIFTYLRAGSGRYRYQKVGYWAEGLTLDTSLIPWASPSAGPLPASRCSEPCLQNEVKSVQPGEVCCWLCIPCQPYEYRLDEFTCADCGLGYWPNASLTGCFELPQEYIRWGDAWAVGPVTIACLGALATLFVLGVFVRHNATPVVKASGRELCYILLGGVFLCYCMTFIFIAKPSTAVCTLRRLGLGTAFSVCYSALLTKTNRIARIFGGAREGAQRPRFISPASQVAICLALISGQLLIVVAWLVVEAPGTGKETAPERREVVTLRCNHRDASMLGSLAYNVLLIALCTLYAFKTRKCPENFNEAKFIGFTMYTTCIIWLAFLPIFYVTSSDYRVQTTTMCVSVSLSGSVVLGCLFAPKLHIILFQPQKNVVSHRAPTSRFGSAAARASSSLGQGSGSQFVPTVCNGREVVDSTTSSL

Row | Ki | Compound
1 | 2640 nM | C[C@@H]1[C@H](C(=O)O)[C@H]1[C@H](N)C(=O)O [(2S,1′S,2′S,3′S)-2′-carboxy-3′methylcyclopropylglycine]
2 | 100 nM | C[C@H]1[C@H](C(=O)O)[C@H]1[C@H](N)C(=O)O [Example 1, (2S,1′S,2′S,3′R)-2-(3′-Methyl-2′-carboxycyclopropyl)glycine]
